Source: US7524851B2 (Robert Bosch Gesellschaft fur Medizinische Forschung (RBMF), priority 2003, dated 2009)

Columns and labels:
CD4+ T cells = experiment: Apoptosis by Nicoletti staining and transmission electron microscopy; assay type: cell-based, human; conditions: 5 days
Experimental: For FACS analysis, apoptotic cells were detected by staining with annexin V and propidium iodide using the Annexin V FITC Apoptosis Detection Kit I (PharMingen) (Atreya et al., Nat. Med. 6:583-588 (2000)). In brief, T cells were washed twice in PBS, and the pellet was resuspended in annexin V binding buffer (PharMingen) at a concentration of 10^6 cells per milliliter. Annexin V FITC and propidium iodide were added (5 ill of each per 10^5 cells). Samples were gently mixed and incubated for 15 minutes at room temperature in the dark before FACS analysis. To verify the results obtained with the annexin V/propidium iodide staining, analysis of T cells displaying DNA fragmentation was also determined by the Nicoletti technique, as described in (Nicoletti et al., J. Immunol. Methods 139:271-279 (1991)). 10^6 T cells were fixed in 70% ethanol, washed once in HBSS, resuspended in 1 ml of HBSS and 1 ml of phosphate citric acid buffer (0.2 mol/l Na2PO4 and 0.004 mol/l citric acid [pH 7.8]), and incubated at room temperature for 5 minutes. After centrifugation, cells were resuspended in 1 ml of HBSS containing 20 μg/ml propidium iodide and 10 U DNase-free RNase A and incubated at room temperature for 30 minutes. Finally, cells were analyzed on a FACScan flow cytometer. Because of the fragmentation of DNA, apoptotic cells appear as hypodiploid in the DNA histogram.

[1] = system: primary CD4+ T lymphocytes; experiment: T cell vitality and clonal expansion (trypan blue); assay type: cell-based, human
Experimental: Analysis of T cell vitality and clonal expansion: To induce T cell expansion, purified T lymphocytes were stimulated with coated antibodies to CD3 (0.04 μg/ml), soluble antibodies to CD28 (1 μg/ml), and recombinant IL-2 (40 U/ml) for the indicated periods of time. […] Cell viability was assessed by trypan blue (Sigma-Aldrich) staining at the beginning and at the end of the cell culture. The clonal expansion of T cells during cell culture was calculated by the ratio between cell numbers at the beginning and at the end of the cell culture.

Rac1 = Rac1 protein expression (Western blot, immunocytochemistry); assay type: cell-based, human
Experimental: Western blots: Equal amounts of extract (30 μg) were added to 8 μl of electrophoresis sample buffer (Firma Roth; Karlsruhe, Germany). After boiling, the extracts were loaded on 15% SDS-PAGE gels and electrophoretically separated. Proteins were transferred to nitrocellulose membranes, and detection was performed with the ECL Western blotting analysis system (Amersham). […]
Immunocytochemical analysis: Immunocytochemistry was performed as described in Atreya et al., supra and Finotto et al., J. Exp. Med. 193:1247-1260 (2001)). […] Cells were rinsed with PBS, and nuclei were counterstained with Hoechst33342 blue for fluorescence (Molecular Probes; Burlingame, Calif., USA). Finally, cells were washed in PBS and analyzed with an Olympus Microscope. Six to ten high-power fields were finally analyzed in all patients per condition, and selected high-power fields were further analyzed by confocal laser microscopy.

[2] = system: primary CD4+ T lymphocytes; experiment: Mitochondrial membrane potential (JC-1, FACS); conditions: 5 days

Row | SMILES | number of apoptotic CD4+ T cells (CD4+ T cells) | clonal expansion of T cells ([1]; day 5) | expression of Rac1 (Rac1) | ΔΨm in primary T cells [2] | clonal expansion of T cells ([1]; earlier time points than day 5)
1 | Sc1ncnc2nc[nH]c12 [6-MP, 6-mercaptopurine] | marked increase | suppresses clonal expansion | not significantly suppressed | loss of ΔΨm | –
2 | Cn1cnc([N+](=O)[O-])c1Sc1ncnc2nc[nH]c12 [azathioprine, Azathioprine] | marked increase | reduction in the clonal expansion | not significantly suppressed | loss of ΔΨm | no significant changes
